From patent US20090054333A1, “Peptide inhibitors of cyclin-dependent kinase activity and uses thereof” (priority 2006, published 2009)

System: A549 non-small cell lung cancer cell line
Assay: treatment of tumor growth in vivo, A549 tumor xenografts
Design: species or system athymic nude mice (CD1, nu/nu)
Conditions: A549 xenograft in nude mice; 50 μl of 1.5 mM peptide injected into the tumoral region
Description: Cell Culture The A549 (wt p53, and wt RB) non-small cell lung cancer cell line was cultured in Ham's F-12 with NaHCO3 (0.75 g NaHCO3/500 ml of Ham's F-12) and 10% (vol/vol) fetal bovine serum (FBS). The cells were cultured at 37° C. in a humidified incubator containing 5% CO2. Cells were harvested, when they reached 70-80% confluence.
Preparation of Tumor Xenografts in Immunodeficient Mice: The animal experiments were carried out in accordance with the Guidelines for the Care and Use of Laboratory Animals (National Institute of Health publication number 85-23) and the institutional guidelines of Temple University. 4-6 week-old female athymic nude mice (CD1, nu/nu) were bought from Charles River Laboratory (Wilmington, Mass.). About a week after the mice arrived, the A549 cells were harvested and then suspended in unsupplemented culture medium without FBS. After the mice were anesthetized by isoflurane inhalation, 4×10^6 cells in a final volume of 100 μl were injected subcutaneously into the right flank of each mouse by using 1-cc syringes with 25.5-gauge needles.
In Vivo Treatments: The length and width of each tumor were measured every time in triplicates by using a Vernier caliper. […]
For each peptide type, three mice were treated. […] The tumor sizes were measured before each treatment. Tumor volumes were calculated and plotted on a graph. […]

Spa310: pRb2/p130 amino acids 641-679 (39 amino acids long), SEQ ID NO:3; LTPRRVTEVRADTGGLGRSITSPTTLYDRYSSPPASTTR (listed as Homo sapiens)
tumor growth: does suppress the tumor growth
